Measured values reported in patent publication US20230398130A1, “METHODS AND COMPOSITIONS FOR DIFFERENTIATING STEM CELLS” (Massachusetts Institute of Technology, priority 2020, published 2023).

Assays:
[1] = tested on: ISC-enriched organoids; assay: Primary screen, 384-well 2.5-D organoid differentiation (ENR+CD, 6 days): basal lysozyme secretion (LYZ.NS); assay type: cell-based, murine; conditions: for Dose.FC.LYZ.NS: FC vs plate median; for Z.LYZ.NS: standard z score of FC; for SSMD.LYZ.NS: strictly standardized mean difference
Source text: (§1) High-throughput screening.

[2] = tested on: ISC-enriched organoids; assay: Primary screen, 384-well 2.5-D organoid differentiation (ENR+CD, 6 days): carbachol-induced lysozyme secretion (LYZ.S); assay type: cell-based, murine; conditions: primary screen; for Dose.FC.LYZ.S: FC vs plate median; for Z.LYZ.S: standard z score; for SSMD.LYZ.S: strictly standardized mean difference
Source text: as §1

[3] = tested on: ISC-enriched organoids; assay: Primary screen, 384-well 2.5-D organoid differentiation (ENR+CD, 6 days, Target Selective Inhibitor Library, vs whole-plate median): ATP (CellTiter-Glo 3D, CTG); conditions: for Dose.FC.CTG: FC vs plate median; for SSMD.CTG: strictly standardized mean difference
[4] = primary screen, 1st of the 4 dose lines of the treatment (dose not given)
[5] = primary screen, 2nd of the 4 dose lines of the treatment (dose not given)
[6] = primary screen, 3rd of the 4 dose lines of the treatment (dose not given)
[7] = primary screen, 4th of the 4 dose lines of the treatment (dose not given)
[8] = 1st of the 4 dose lines of the treatment (dose not given)
[9] = 2nd of the 4 dose lines of the treatment (dose not given)
[10] = 3rd of the 4 dose lines of the treatment (dose not given)
[11] = 4th of the 4 dose lines of the treatment (dose not given)
[12] = primary screen, dose 0.08 uM, ENR+CD 6 days
[13] = primary screen, dose 0.40 uM, ENR+CD 6 days
[14] = primary screen, dose 2.00 uM, ENR+CD 6 days
[15] = primary screen, dose 10.00 uM, ENR+CD 6 days

Compound: CN1C(=O)C(Cc2c[nH]c3ccccc23)NC1=S (stereo not drawn) [Necrostatin-1]
- Dose.FC.LYZ.NS ([1]; Dose 0.08 uM, primary screen): 0.060 log 2 fold change
- Z.LYZ.NS ([1]; Dose 0.08 uM): 0.524
- Dose.FC.LYZ.NS ([1]; Dose 0.40 uM, primary screen): 0.020 log 2 fold change
- Z.LYZ.NS ([1]; Dose 0.40 uM): 0.174
- Dose.FC.LYZ.NS ([1]; Dose 2.00 uM, primary screen): 0.154 log 2 fold change
- Z.LYZ.NS ([1]; Dose 2.00 uM): 1.338
- Dose.FC.LYZ.NS ([1]; Dose 10.00 uM, primary screen): 0.057 log 2 fold change
- Z.LYZ.NS ([1]; Dose 10.00 uM): 0.496
- Dose.FC.LYZ.S ([2]; Dose 0.08 uM): 0.077 log 2 fold change
- Dose.FC.LYZ.S ([2]; Dose 0.40 uM): 0.038 log 2 fold change
- Dose.FC.LYZ.S ([2]; Dose 2.00 uM): 0.092 log 2 fold change
- Dose.FC.LYZ.S ([2]; Dose 10.00 uM): 0.229 log 2 fold change
- Dose.FC.CTG ([3]; Dose 0.08 uM, primary screen): 0.102 log 2 fold change
- Z.CTG ([3]; Dose 0.08 uM, standard z score of FC): 0.244
- Dose.FC.CTG ([3]; Dose 0.40 uM, primary screen): 0.168 log 2 fold change
- Z.CTG ([3]; Dose 0.40 uM, standard z score of FC): 0.401
- Dose.FC.CTG ([3]; Dose 2.00 uM, primary screen): 0.011 log 2 fold change
- Z.CTG ([3]; Dose 2.00 uM, standard z score of FC): 0.027
- Dose.FC.CTG ([3]; Dose 10.00 uM, primary screen): 0.137 log 2 fold change
- Z.CTG ([3]; Dose 10.00 uM, standard z score of FC): 0.328

Compound: CC#CCn1c(N2CCC[C@@H](N)C2)nc2c1c(=O)n(Cc1nc(C)c3ccccc3n1)c(=O)n2C [Linagliptin]
- SSMD.LYZ.NS [1, 4]: 1.046
- SSMD.LYZ.NS [1, 5]: 0.306
- SSMD.LYZ.NS [1, 6]: 0.118
- SSMD.LYZ.NS [1, 7]: 0.671
- Z.LYZ.S [2, 8]: 0.905
- Z.LYZ.S [2, 9]: 0.305
- Z.LYZ.S [2, 10]: −0.204
- Z.LYZ.S [2, 11]: 0.322
- SSMD.LYZ.S [2, 8]: 0.797
- SSMD.LYZ.S [2, 9]: 0.215
- SSMD.LYZ.S [2, 10]: −0.126
- SSMD.LYZ.S [2, 11]: 0.374
- Z.CTG ([3]; Dose 0.08 uM, primary screen, standard z score): 0.389
- Z.CTG ([3]; Dose 0.40 uM, primary screen, standard z score): 0.499
- Z.CTG ([3]; Dose 2.00 uM, primary screen, standard z score): 0.054
- Z.CTG ([3]; Dose 10.00 uM, primary screen, standard z score): −0.027
- SSMD.CTG [3, 4]: 0.299
- SSMD.CTG [3, 5]: 0.612
- SSMD.CTG [3, 6]: 0.047
- SSMD.CTG [3, 7]: −0.025

Compound: O=C(c1ccc(F)cc1)N1CCC[C@H](c2nc(-c3ccc(F)cc3)no2)C1 [ADX-47273]
- Dose.FC.LYZ.NS [1, 12]: 0.269 log 2 fold change
- Z.LYZ.NS ([1]; primary screen, dose 0.08 uM): 2.346
- Dose.FC.LYZ.NS [1, 13]: 0.053 log 2 fold change
- Z.LYZ.NS ([1]; primary screen, dose 0.40 uM): 0.457
- Dose.FC.LYZ.NS [1, 14]: −0.033 log 2 fold change
- Z.LYZ.NS ([1]; primary screen, dose 2.00 uM): −0.286
- Dose.FC.LYZ.NS [1, 15]: −0.036 log 2 fold change
- Z.LYZ.NS ([1]; primary screen, dose 10.00 uM): −0.311
- Dose.FC.LYZ.S ([2]; dose 0.08 uM, ENR+CD 6 days): 0.147 log 2 fold change
- Dose.FC.LYZ.S ([2]; dose 0.40 uM, ENR+CD 6 days): 0.147 log 2 fold change
- Dose.FC.LYZ.S ([2]; dose 2.00 uM, ENR+CD 6 days): −0.039 log 2 fold change
- Dose.FC.LYZ.S ([2]; dose 10.00 uM, ENR+CD 6 days): −0.070 log 2 fold change
- Dose.FC.CTG [3, 12]: 0.115 log 2 fold change
- Z.CTG ([3]; primary screen, dose 0.08 uM, standard z score of FC): 0.274
- Dose.FC.CTG [3, 13]: −0.034 log 2 fold change
- Z.CTG ([3]; primary screen, dose 0.40 uM, standard z score of FC): −0.082
- Dose.FC.CTG [3, 14]: −0.210 log 2 fold change
- Z.CTG ([3]; primary screen, dose 2.00 uM, standard z score of FC): −0.501
- Dose.FC.CTG [3, 15]: −0.039 log 2 fold change
- Z.CTG ([3]; primary screen, dose 10.00 uM, standard z score of FC): −0.094
